Reference: US20250295648A1 (priority 2024, published 2025)
Where “and” joins values, the source holds several entries; their conditions need not be identical. Identical values can stand only once.

Legend:
clinical = details: human, in vivo
Protocol: Blood was collected for NLX-112 plasma concentration measurements on Days 14, 21, 28, 42 and 70 (Visits 4, 5, 6, 7 and 9).
The concentration of NLX-112 was determined in 120 human plasma samples collected from the clinical study. The bioanalysis was performed in the calibration range of 1.0 ng/ml to 1620 ng/ml using a 35 μL sample volume.
The Qualification Runs 1 and 2 contained two calibration curves, six sets of QC samples at eight levels (QC1 to QC8), as well as UPLC and Tecan Carry-over test samples. The analytical run 1 contained two calibration curves, four sets of QC samples at three levels (QC L, M and H), as well as […] and Tecan Carry-over test samples. The qualification and analysis was performed in an exploratory setting.
The analytical instrumentation consisted of an Acquity UPLC system coupled to a Xevo-TQS micro tandem quadrupole mass spectrometer (Waters Corp., Milford, MA, USA). […]
A combined calibration curve was constructed from the two sets of calibration samples for each run. […] The lower limit of quantification (LLOQ) for the method was 1.0 ng/mL and the upper limit of quantification (ULOQ) was 1620 ng/mL of NLX-112 in human plasma.
The mean NLX-112 blood plasma concentration measured in treated patients on study days 14 (Visit 4), […] (Visit 5), 28 (Visit 6), 42 (Visit 7), and 70 (Visit 9) is shown in Table 5. […]

PD patients with LID = assay: ICIQ Overactive Bladder Module (ICIQ-OAB); assay type: in vivo, human; details: for ICIQ-OAB, mean change from baseline: per-protocol set
From the text: The ICIQ-OAB provides a brief and robust measure to assess the impact of symptoms of overactive bladder on quality of life and outcome of treatment. It is a 4-item patient reported outcome covering 4 domains of bladder function: frequency, nocturia, urgency, and urge urinary incontinence. Each item is scored by frequency of 0-4, for a total score of 0-16. Ratings would be based on the previous month or since the last clinic visit. Efficacy would be assessed as change from the baseline total score.

MPTP-treated marmosets = details: in vivo; cited from earlier work
[1] = system: Parkinson's disease symptoms in PD patients with LID; assay: Unified Parkinson's Disease Rating Scale (UPDRS); details: for UPDRS Part 3 score (motor disability), change from baseline: p=0.0072 vs baseline
Protocol: Patients were rated for dyskinesia at baseline and on days 28 (at end of up-titration period) and 42 (end of stable dosing period). Because the level of dyskinesia experienced by patients can vary over time, they were given 150% (i.e., 1.5×) of their regular L-DOPA dose (up to a maximum of 250 mg) as a challenge 30 min before each dyskinesia assessment to improve comparability between patients and between visits. Patients were filmed 30, 60 and 90 min after dosing with L-DOPA (˜5 min of filming each time). LID was assessed using the Unified Dyskinesia Rating Scale (UDysRS). Changes from baseline are shown for total score (i.e., Parts 1 to 4), for total objective score (i.e., Parts 3+4), and for the sum of Part 3 objective impairment assessment scores. Because objective LID assessment was carried out at 3 time-points (30, 60 and 90 min) following L-DOPA challenge, the above parameters were analyzed based on the most severe of the three scores as well as on the average score of the 3 time points. PD symptoms were assessed by Unified Parkinson's Disease Rating Scale (UPDRS) 30-90 min after the 150% L-DOPA challenge (i.e., when the patient was ON). Changes from baseline are shown for total score (i.e., Parts 1 to 4) and individual scores for each Part, 1, 2, 3 and 4.
The UPDRS consists of 4 parts: • v. Part I assesses non-motor experiences of daily living, such as cognitive impairment and depressed mood. • w. Part II assesses motor experiences of daily living, such as speech and eating tasks. • x. Part III is a motor examination conducted by the clinician, including assessments of symptoms such as rigidity and tremor. • y. Part IV is an assessment of motor complications, such as time spent with dyskinesia and functional impact of dyskinesias.
Each item in the UPDRS is scored from 0 to 4, and the individual scores are summed to give a total score that indicates the severity of the disease, with a score of 0 indicating no disability and a score of 199 being the most severe (indicating total disability).
Change from baseline in UPDRS combined scores (Parts I, II, III and IV) to Visit 6 (Day 28) and Visit 7 (Day 42) respectively would be summarized using descriptive statistics. […] The same analysis would be done for UPDRS Part III only.
The baseline value of the dependent variable has been included in the model as a continuous covariate. Kenward-Roger's improved approximation for degrees of freedom (2009) has been used; ^b)=p-value for the difference between NLX-112 at the assessment timepoint and at baseline; ^c)=p-value for the difference between placebo at the assessment timepoint and at baseline; ^d)=p-value for the difference between NLX-112 and placebo absolute change from baseline at the assessment timepoint.

[2] = per-protocol set (n = 15), Baseline
[3] = 5 patients co-treated with amantadine
[4] = Full analysis set, Visit 2 Baseline
[5] = Full analysis set, Visit 6 Clinic Efficacy Visit
[6] = Full analysis set, Visit 7 Clinic Efficacy Visit
[7] = Full analysis set, Visit 9 Follow-up Clinic Visit
[8] = Visit 2 Baseline, per protocol analysis set, N = 15
[9] = Visit 6 Clinic Efficacy Visit (Day 28), per protocol analysis set, N = 15
[10] = Visit 7 Clinic Efficacy Visit (Day 42), per protocol analysis set, N = 15
[11] = Visit 9 Follow-up Clinic Visit, per protocol analysis set, N = 15
[12] = individual patients A-E co-treated with amantadine
[13] = per-protocol set, Δ D 28 (end of up-titration), p < 0.05 vs baseline
[14] = per-protocol set, Δ D 42 (end of stable dosing)
[15] = per-protocol set, Δ D 42 (end of stable dosing), p < 0.01 vs baseline

SMILES: Cc1ccc(CNCC2(F)CCN(C(=O)c3ccc(F)c(Cl)c3)CC2)nc1 [NLX-112, (3-chloro-4-fluoro-phenyl)-[4-fluoro-4-{[(5-methyl-pyridin-2-ylmethyl)-amino]-methyl}piperidin-1-yl]methanone]
- concentration at 14 day (clinical): 32.3 ng/mL
- concentration at 25 day (clinical): 38.7 ng/mL
- incontinence (ICIQ-OAB) (PD patients with LID; Days 28 or 42): no consistent statistically significant effect
- ICIQ-OAB, mean (PD patients with LID; [2]): 18.3
- ICIQ-OAB, mean change from baseline (PD patients with LID; Δ D 28 (end of up-titration)): 0.7
- ICIQ-OAB, mean change from baseline (PD patients with LID; Δ D 42 (end of stable dosing)): −0.8
- disability scores (MPTP-treated marmosets): reduces disability scores
- UPDRS Part 3, mean change from baseline [1, 3]: −4.2
- UPDRS Total, mean change from baseline [1, 3]: −6.6
- UPDRS Part 2 (motor experiences of daily living), vs baseline ([1]; Day 28): statistically significant reduction
- UPDRS total score (Parts 1-4), change from baseline ([1]; Day 28, PPS, p=0.0005 vs baseline): −6.5 points
- UPDRS Part 3 score (motor disability), change from baseline ([1]; Day 28, PPS): −3.7 points
- UPDRS total score (Parts 1-4), change from baseline ([1]; Day 42, PPS, p=0.0021 vs baseline): −5.7 points
- UPDRS Part 3 score (motor disability), change from baseline ([1]; Day 42, PPS): −3.7 points
- UPDRS total score absolute change from baseline, NLX-112 vs placebo ([1]; Days 28 or 42): no significant differences
- UPDRS Part 3 Motor Total, collected value, mean [1, 4]: 17.8
- UPDRS Part 3 Motor Total, collected value, median [1, 4]: 16.0
- UPDRS Total Score (all Parts), collected value, Mean [1, 4]: 38.3
- UPDRS Total Score (all Parts), collected value, Median [1, 4]: 37.5
- UPDRS Part 3 Motor Total, absolute change from baseline, mean [1, 5]: −3.7
- UPDRS Part 3 Motor Total, absolute change from baseline, median [1, 5]: −4.0
- UPDRS Part 3 Motor Total, collected value, mean [1, 5]: 13.9
- UPDRS Part 3 Motor Total, collected value, median [1, 5]: 14.0
- UPDRS Part 3 Motor Total, relative change from baseline (%), mean [1, 5]: −21.8%
- UPDRS Part 3 Motor Total, relative change from baseline (%), median [1, 5]: −21.4%
- UPDRS Total Score (all Parts), absolute change from baseline, Mean [1, 5]: −6.5
- UPDRS Total Score (all Parts), absolute change from baseline, Median [1, 5]: −5.0
- UPDRS Total Score (all Parts), collected value, Mean [1, 5]: 30.5
- UPDRS Total Score (all Parts), collected value, Median [1, 5]: 29.0
- UPDRS Total Score (all Parts), relative change from baseline (%), Mean [1, 5]: −17.4%
- UPDRS Total Score (all Parts), relative change from baseline (%), Median [1, 5]: −15.2%
- UPDRS Part 3 Motor Total, absolute change from baseline, mean [1, 6]: −3.7
- UPDRS Part 3 Motor Total, absolute change from baseline, median [1, 6]: −4.0
- UPDRS Part 3 Motor Total, collected value, mean [1, 6]: 13.9
- UPDRS Part 3 Motor Total, collected value, median [1, 6]: 14.0
- UPDRS Part 3 Motor Total, relative change from baseline (%), mean [1, 6]: −21.5%
- UPDRS Part 3 Motor Total, relative change from baseline (%), median [1, 6]: −33.3%
- UPDRS Total Score (all Parts), absolute change from baseline, Mean [1, 6]: −5.7
- UPDRS Total Score (all Parts), absolute change from baseline, Median [1, 6]: −5.0
- UPDRS Total Score (all Parts), collected value, Mean [1, 6]: 31.3
- UPDRS Total Score (all Parts), collected value, Median [1, 6]: 30.0
- UPDRS Total Score (all Parts), relative change from baseline (%), Mean [1, 6]: −15.7%
- UPDRS Total Score (all Parts), relative change from baseline (%), Median [1, 6]: −19.2%
- UPDRS Part 3 Motor Total, absolute change from baseline, mean [1, 7]: −2.7
- UPDRS Part 3 Motor Total, absolute change from baseline, median [1, 7]: −2.0
- UPDRS Part 3 Motor Total, collected value, mean [1, 7]: 14.8
- UPDRS Part 3 Motor Total, collected value, median [1, 7]: 13.0
- UPDRS Part 3 Motor Total, relative change from baseline (%), mean [1, 7]: −11.2%
- UPDRS Part 3 Motor Total, relative change from baseline (%), median [1, 7]: −14.3%
- UPDRS Total Score (all Parts), absolute change from baseline, Mean [1, 7]: −4.4
- UPDRS Total Score (all Parts), absolute change from baseline, Median [1, 7]: −3.0
- UPDRS Total Score (all Parts), collected value, Mean [1, 7]: 32.6
- UPDRS Total Score (all Parts), collected value, Median [1, 7]: 31.0
- UPDRS Total Score (all Parts), relative change from baseline (%), Mean [1, 7]: −9.57%
- UPDRS Total Score (all Parts), relative change from baseline (%), Median [1, 7]: −11.5%
- UPDRS Part 3 Motor Total, collected value, mean [1, 8]: 17.5
- UPDRS Part 3 Motor Total, collected value, median [1, 8]: 17.0
- UPDRS Total Score, collected value, mean [1, 8]: 37.0
- UPDRS Total Score, collected value, median [1, 8]: 36.0
- UPDRS Part 3 Motor Total, absolute change from baseline, mean [1, 9]: −3.7
- UPDRS Part 3 Motor Total, absolute change from baseline, median [1, 9]: −4.0
- UPDRS Part 3 Motor Total, collected value, mean [1, 9]: 13.9
- UPDRS Part 3 Motor Total, collected value, median [1, 9]: 14.0
- UPDRS Part 3 Motor Total, relative change from baseline (%), mean [1, 9]: −21.8%
- UPDRS Part 3 Motor Total, relative change from baseline (%), median [1, 9]: −21.4%
- UPDRS Total Score, absolute change from baseline, mean [1, 9]: −6.5
- UPDRS Total Score, absolute change from baseline, median [1, 9]: −5.0
- UPDRS Total Score, collected value, mean [1, 9]: 30.5
- UPDRS Total Score, collected value, median [1, 9]: 29.0
- UPDRS Total Score, relative change from baseline (%), mean [1, 9]: −17.4%
- UPDRS Total Score, relative change from baseline (%), median [1, 9]: −15.2%
- UPDRS Part 3 Motor Total, absolute change from baseline, mean [1, 10]: −3.7
- UPDRS Part 3 Motor Total, absolute change from baseline, median [1, 10]: −4.0
- UPDRS Part 3 Motor Total, collected value, mean [1, 10]: 13.9
- UPDRS Part 3 Motor Total, collected value, median [1, 10]: 14.0
- UPDRS Part 3 Motor Total, relative change from baseline (%), mean [1, 10]: −21.5%
- UPDRS Part 3 Motor Total, relative change from baseline (%), median [1, 10]: −33.3%
- UPDRS Total Score, absolute change from baseline, mean [1, 10]: −5.7
- UPDRS Total Score, absolute change from baseline, median [1, 10]: −5.0
- UPDRS Total Score, collected value, mean [1, 10]: 31.3
- UPDRS Total Score, collected value, median [1, 10]: 30.0
- UPDRS Total Score, relative change from baseline (%), mean [1, 10]: −15.7%
- UPDRS Total Score, relative change from baseline (%), median [1, 10]: −19.2%
- UPDRS Part 3 Motor Total, absolute change from baseline, mean [1, 11]: −2.7
- UPDRS Part 3 Motor Total, absolute change from baseline, median [1, 11]: −2.0
- UPDRS Part 3 Motor Total, collected value, mean [1, 11]: 14.8
- UPDRS Part 3 Motor Total, collected value, median [1, 11]: 13.0
- UPDRS Part 3 Motor Total, relative change from baseline (%), mean [1, 11]: −11.2%
- UPDRS Part 3 Motor Total, relative change from baseline (%), median [1, 11]: −14.3%
- UPDRS Total Score, absolute change from baseline, mean [1, 11]: −4.4
- UPDRS Total Score, absolute change from baseline, median [1, 11]: −3.0
- UPDRS Total Score, collected value, mean [1, 11]: 32.6
- UPDRS Total Score, collected value, median [1, 11]: 31.0
- UPDRS Total Score, relative change from baseline (%), mean [1, 11]: −9.57%
- UPDRS Total Score, relative change from baseline (%), median [1, 11]: −11.5%
- reduction in UPDRS Part 3 score, more than placebo ([1]; day 42): 3.9 points
- UPDRS Part 1 (non-motor experiences of daily living), vs baseline ([1]; days 28 and 42): no statistically significant changes from baseline
- UPDRS Part IV (motor complications), vs baseline ([1]; days 28 and 42): significant reduction
- UPDRS Part 3, Δ from baseline [1, 12]: −9 and −13 and +3 and +2 and −4
- UPDRS Total, Δ from baseline [1, 12]: −15 and −11 and −5 (2×) and +3
- patients on NLX-112 and amantadine with numerical reductions in PD symptoms (UPDRS) ([1]; of the 5 patients): 4
- UPDRS Part 1, mean [1, 2]: 1.0
- UPDRS Part 2, mean [1, 2]: 10.7
- UPDRS Part 3, mean [1, 2]: 17.5
- UPDRS Part 4, mean [1, 2]: 8.0
- UPDRS Total (Parts 1 to 4), mean [1, 2]: 37.0
- UPDRS Part 1, mean change from baseline ([1]; per-protocol set, Δ D 28 (end of up-titration)): 0.2
- UPDRS Total (Parts 1 to 4), mean change from baseline ([1]; per-protocol set, Δ D 28 (end of up-titration), p < 0.001 vs baseline): −6.5
- UPDRS Part 3, mean change from baseline ([1]; per-protocol set, Δ D 28 (end of up-titration), p < 0.01 vs baseline, p < 0.05 vs placebo): −3.7
- UPDRS Part 2, mean change from baseline [1, 13]: −2.1
- UPDRS Part 4, mean change from baseline [1, 13]: −0.9
- UPDRS Part 1, mean change from baseline [1, 14]: 0.1
- UPDRS Part 2, mean change from baseline [1, 14]: −1.2
- UPDRS Part 3, mean change from baseline [1, 15]: −3.7
- UPDRS Total (Parts 1 to 4), mean change from baseline [1, 15]: −5.7
- UPDRS Part 4, mean change from baseline ([1]; per-protocol set, Δ D 42 (end of stable dosing), p < 0.05 vs baseline): −0.9
